# In ChEMBL document CHEMBL1201862, “PubChem BioAssay data set” (2004):
# Active and inactive are the calls of the source.
# Experiments:
# Vero = test: cells; format: functional; conditions: Chlorocebus sabaeus
# Streptococcus = test: Group A Streptococcus viability loss, dose response, counter-screen for streptokinase expression inhibitor project, luminescence, BacTiterGlo (AID 1915); format: functional, organism-based; conditions: Streptococcus;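 also: potency for reduction of bacterial viability or growth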
# Streptokinase A = molecular target: T1, Streptokinase A (Streptococcus pyogenes serotype M1, UniProt P10520); test: S. pyogenes streptokinase expression inhibitors, potency, dose response, plasminogen activation absorbance, OD405 (AID 1914); format: functional, Streptococcus pyogenes M1 GAS;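 also: secreted streptokinase activity via plasminogen activation per viability signal from cell pellet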
# T1 sequence (P10520 whole entry): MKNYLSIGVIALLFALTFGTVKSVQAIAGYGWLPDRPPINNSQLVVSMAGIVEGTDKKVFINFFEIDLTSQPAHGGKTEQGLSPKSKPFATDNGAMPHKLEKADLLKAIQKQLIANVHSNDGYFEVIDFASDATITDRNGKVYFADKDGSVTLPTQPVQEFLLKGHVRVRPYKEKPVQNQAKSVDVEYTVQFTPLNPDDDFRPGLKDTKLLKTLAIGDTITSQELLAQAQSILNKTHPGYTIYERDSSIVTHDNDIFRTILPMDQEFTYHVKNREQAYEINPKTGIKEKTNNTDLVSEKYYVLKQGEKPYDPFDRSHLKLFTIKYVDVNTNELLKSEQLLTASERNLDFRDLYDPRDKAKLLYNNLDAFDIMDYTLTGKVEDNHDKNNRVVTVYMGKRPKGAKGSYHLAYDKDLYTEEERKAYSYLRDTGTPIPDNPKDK
# [1] = tested on: Streptococcus sp. 'group A'; test: growth inhibition of control SK(-) GAS strain, dose response, counter-screen for streptokinase expression inhibitor project, luminescence, kanamycin, BacTiterGlo, confirmation (AID 1900); format: functional, organism-based; conditions: Streptococcus sp. 'group A'
# [2] = molecular target: T2, Replicative DNA helicase DnaB (Mycobacterium tuberculosis, UniProt P9WMR3); test: DnaB intein splicing inhibitors, dose response, biochemical, cell-free fluorescence (AID 449749); format: functional
# T2 sequence (P9WMR3 whole entry): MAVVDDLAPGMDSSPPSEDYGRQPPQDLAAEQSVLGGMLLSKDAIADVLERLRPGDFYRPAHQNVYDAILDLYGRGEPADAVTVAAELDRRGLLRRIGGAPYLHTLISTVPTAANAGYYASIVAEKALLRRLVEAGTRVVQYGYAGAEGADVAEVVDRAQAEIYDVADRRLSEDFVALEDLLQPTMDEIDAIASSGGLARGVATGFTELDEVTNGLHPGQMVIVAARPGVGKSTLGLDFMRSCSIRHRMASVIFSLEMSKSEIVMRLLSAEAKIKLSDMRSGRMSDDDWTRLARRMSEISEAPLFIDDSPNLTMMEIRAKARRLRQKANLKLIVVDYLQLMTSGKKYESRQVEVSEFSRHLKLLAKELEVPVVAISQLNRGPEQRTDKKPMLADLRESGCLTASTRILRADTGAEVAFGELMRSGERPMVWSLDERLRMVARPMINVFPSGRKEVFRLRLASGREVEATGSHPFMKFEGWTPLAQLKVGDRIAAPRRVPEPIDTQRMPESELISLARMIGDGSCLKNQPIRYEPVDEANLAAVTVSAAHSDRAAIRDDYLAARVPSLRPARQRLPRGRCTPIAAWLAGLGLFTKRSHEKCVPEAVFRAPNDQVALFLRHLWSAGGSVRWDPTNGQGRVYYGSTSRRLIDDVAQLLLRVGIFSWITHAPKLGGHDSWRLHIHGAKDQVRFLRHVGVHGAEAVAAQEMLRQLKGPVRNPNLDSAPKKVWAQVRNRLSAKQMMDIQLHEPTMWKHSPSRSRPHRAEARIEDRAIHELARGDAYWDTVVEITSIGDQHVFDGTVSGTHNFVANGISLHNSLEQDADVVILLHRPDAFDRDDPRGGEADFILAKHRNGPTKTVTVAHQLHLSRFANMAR
# [3] = Counterscreen for inhibitors of Trypanosoma brucei methionyl tRNA synthetase (MetRS): Luminescence-based cell-based high throughput dose response assay to identify compounds that are cytotoxic to Jurkat human T lymphocyte cells.; format: functional
# Protein RecA = molecular target: T3, Protein RecA (Mycobacterium tuberculosis, UniProt P9WHJ3); test: Fluorescence Cell-Free Homogeneous Dose Retest to Identify Inhibitors of RecA-Intein Splicing Activity. [Related pubchem assays (depositor defined):AID2097, AID2223, AID489010, AID492950]; format: functional
# T3 sequence (P9WHJ3 whole entry): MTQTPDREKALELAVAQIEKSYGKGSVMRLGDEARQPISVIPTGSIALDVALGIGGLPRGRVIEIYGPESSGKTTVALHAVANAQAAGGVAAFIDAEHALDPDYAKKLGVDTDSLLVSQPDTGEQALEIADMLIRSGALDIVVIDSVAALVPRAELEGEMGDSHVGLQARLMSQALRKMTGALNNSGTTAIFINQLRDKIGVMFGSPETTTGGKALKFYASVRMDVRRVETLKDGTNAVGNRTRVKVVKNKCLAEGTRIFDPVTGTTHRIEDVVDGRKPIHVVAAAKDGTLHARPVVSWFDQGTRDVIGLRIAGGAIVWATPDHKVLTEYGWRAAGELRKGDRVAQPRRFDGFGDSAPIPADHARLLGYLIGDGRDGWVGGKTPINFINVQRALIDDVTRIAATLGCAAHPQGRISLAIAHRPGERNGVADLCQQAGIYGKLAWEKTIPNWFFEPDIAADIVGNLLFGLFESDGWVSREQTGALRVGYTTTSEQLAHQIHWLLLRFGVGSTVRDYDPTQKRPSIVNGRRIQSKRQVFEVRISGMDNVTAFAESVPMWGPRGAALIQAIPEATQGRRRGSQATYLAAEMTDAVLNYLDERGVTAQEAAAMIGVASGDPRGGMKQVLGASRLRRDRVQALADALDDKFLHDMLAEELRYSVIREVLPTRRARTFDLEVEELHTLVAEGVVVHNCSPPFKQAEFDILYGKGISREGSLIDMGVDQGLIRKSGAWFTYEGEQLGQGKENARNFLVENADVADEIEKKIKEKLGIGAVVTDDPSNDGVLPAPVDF
# [4] = HepG2 cell cytotoxicity, dose response, cytotoxicity control, ATP luminescence, cherry-pick, activator set 2 (AID 1053143); format: functional, cell-based
# [5] = molecular target: T4, Methionyl-tRNA synthetase, putative (Trypanosoma brucei brucei, UniProt Q38C91); format: functional, Trypanosoma brucei brucei strain 927/4 GUTat10.1
# T4 sequence (Q38C91 whole entry): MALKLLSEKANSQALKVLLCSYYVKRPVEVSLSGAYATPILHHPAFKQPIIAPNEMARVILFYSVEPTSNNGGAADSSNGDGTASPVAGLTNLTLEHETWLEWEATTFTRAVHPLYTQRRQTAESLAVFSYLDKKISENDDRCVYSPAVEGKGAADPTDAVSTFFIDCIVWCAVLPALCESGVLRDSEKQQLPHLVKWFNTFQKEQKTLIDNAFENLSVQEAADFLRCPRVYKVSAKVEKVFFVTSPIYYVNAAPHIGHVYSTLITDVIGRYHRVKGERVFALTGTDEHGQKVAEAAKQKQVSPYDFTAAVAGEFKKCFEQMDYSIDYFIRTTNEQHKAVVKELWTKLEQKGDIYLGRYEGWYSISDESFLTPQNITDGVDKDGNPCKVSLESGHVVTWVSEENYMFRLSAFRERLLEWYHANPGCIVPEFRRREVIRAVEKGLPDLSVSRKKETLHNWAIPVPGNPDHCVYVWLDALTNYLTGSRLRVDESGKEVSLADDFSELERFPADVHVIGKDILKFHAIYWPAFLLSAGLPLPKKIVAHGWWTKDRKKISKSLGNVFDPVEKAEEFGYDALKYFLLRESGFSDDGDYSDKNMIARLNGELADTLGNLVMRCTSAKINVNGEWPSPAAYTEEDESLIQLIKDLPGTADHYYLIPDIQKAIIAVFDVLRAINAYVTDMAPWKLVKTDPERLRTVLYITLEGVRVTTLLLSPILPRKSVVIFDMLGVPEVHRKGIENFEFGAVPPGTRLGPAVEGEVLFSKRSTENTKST
# [6] = molecular target: T4, Methionyl-tRNA synthetase, putative; format: functional, Trypanosoma brucei brucei strain 927/4 GUTat10.1; remark: listed apart in the source
# [7] = molecular target: T5, Oxysterols receptor LXR-beta (Homo sapiens, UniProt P55055); test: LXR agonists, Gal4 luciferase reporter, dose response, counter-screen for ssDAF-12 agonist project, cell-based, luminescence, HEK293, S. stercoralis campaign (AID 720737); format: functional; conditions: read-out: IC50 (the source's name)
# T5 sequence (P55055 whole entry): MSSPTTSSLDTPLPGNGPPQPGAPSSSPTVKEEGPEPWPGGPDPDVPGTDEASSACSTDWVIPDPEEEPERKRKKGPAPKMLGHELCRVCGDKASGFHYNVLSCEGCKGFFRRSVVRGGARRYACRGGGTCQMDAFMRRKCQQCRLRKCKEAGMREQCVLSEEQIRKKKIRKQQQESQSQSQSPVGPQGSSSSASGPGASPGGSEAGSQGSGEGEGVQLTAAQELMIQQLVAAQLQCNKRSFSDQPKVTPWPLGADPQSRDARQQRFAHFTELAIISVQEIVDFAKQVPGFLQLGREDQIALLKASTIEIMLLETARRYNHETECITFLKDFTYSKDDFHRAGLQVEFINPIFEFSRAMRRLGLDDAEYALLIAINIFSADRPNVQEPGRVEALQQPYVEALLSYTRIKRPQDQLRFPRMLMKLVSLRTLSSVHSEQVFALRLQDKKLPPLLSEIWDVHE
# [8] = Luminescence-based cell-based high throughput dose response assay to identify activators of the DAF-12 from the parasite S. stercoralis (ssDAF-12).; format: functional
# Kallikrein-7 = Kallikrein-7 (Homo sapiens, UniProt P49862); test: Fluorescence Intensity-based biochemical primary high throughput dose response assay to identify activators of kallikrein-7 (K7) zymogen.
# HeLa = test: HeLa cell cytotoxicity, dose response, cytotoxicity control, ATP luminescence, cherry-pick samples (AID 687004); format: functional, cell-based; conditions: Homo sapiens
# HEK293 = test: HEK293T cell cytotoxicity, dose response, cytotoxicity control, ATP luminescence, cherry-pick samples (AID 687005); format: functional, cell-based; conditions: Homo sapiens;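 also: cells exposed to compound for 48 hours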
# [9] = HEK293 Cytotoxicity Assay Measured in Cell-Based System Using Plate Reader - 7071-01_Inhibitor_Dose_CherryPick_Activity_Set2.; format: functional
# cells = format: functional, cell-based; conditions: INS-1E
# [10] = Dose-response inhibition of insulin secretion in a rat insulinoma line at 5 mM glucose (AID 1117331); format: functional, cell-based; conditions: INS-1E
# Chain of Kallikrein-7 (P49862 whole entry): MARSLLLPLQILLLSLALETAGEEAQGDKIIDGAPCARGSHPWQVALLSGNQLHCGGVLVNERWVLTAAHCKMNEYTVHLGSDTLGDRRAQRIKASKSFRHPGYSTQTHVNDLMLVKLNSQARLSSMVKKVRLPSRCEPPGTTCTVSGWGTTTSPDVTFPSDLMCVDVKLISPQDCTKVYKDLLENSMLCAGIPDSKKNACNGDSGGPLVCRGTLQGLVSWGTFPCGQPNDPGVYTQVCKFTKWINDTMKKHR
smiles,measurement,setting,value
Cc1[nH]c2ccccc2c1/C=N/Nc1nc2ccccc2[nH]1,CC50,Vero,> 25 µM (active)
same,EC50,Streptococcus,9.86 µM (active)
same,EC50,Streptokinase A,> 150 µM (not active)
same,EC50,[1],7.74 µM (active)
same,AC50,[2],> 380 µM (inactive)
same,IC50,[3],36.2 µM (inactive)
same,EC50,Protein RecA,39.3 µM (active)
same,AC50,[4],26 µM (active)
same,IC50,[5],36.9 µM (inactive)
same,IC50,[6],17.1 µM (inactive)
Cc1ccc2nsnc2c1NC(=O)c1cccnc1Cl,EC50,[7],> 67.5 µM (inactive)
same,IC50,[8],> 67.5 µM (inactive)
COc1ccc(C2Nc3ccccc3C(=O)N2NS(C)(=O)=O)cc1OC (stereo unspecified),EC50,Kallikrein-7,38.8 µM (inactive)
CC(C)(C)c1ccc(OCC(=O)NC(c2ccccc2)c2ccccc2)cc1,AC50,HeLa,> 70 µM (inactive)
same,AC50,HEK293,3.2 µM (active)
same,AC50,[9],3.2 µM (active)
O=C(CN1CCOCC1)N[C@@H]1CC[C@@H](CCNC(=O)C2CCC2)O[C@@H]1CO,AC50,HEK293,14.8 µM (active)
same,AC50,[9],14.8 µM (active)
CN1CCc2cc(Cl)c(O)cc2[C@H]2c3ccccc3CC[C@@H]21 [ECOPIPAM],IC50,cells,> 33.3 µM (inactive)
same,IC50,[10],15.4 µM (inactive)
O=C(Nc1c(-c2ccccc2)nc2ncccn12)c1ccccc1,EC50,Kallikrein-7,> 69.6 µM (inactive)
